Laboratory results taken from patent US8247170B2, “Detection of penicillin tolerance in Group B Streptococcus: single nucleotide polymorphisms in penicillin binding protein 4” (priority 2008, dated 2012).

Tested on: GBS laboratory strains
Assay: MBC90:MIC90 ratio method of determining antibiotic tolerance
Format: cell-based, Group B Streptococcus
Conditions: for MBC / MIC / MIC90: Streptococcus; for MBC: 24 h, ≧90% non-viable cells, plate counts after 24 h antibiotic; for MIC: ≧90% growth-inhibited, OD600; for MIC90: for GBS, as stated under culture conditions
Experimental: The inventors ascertained the incidence of antibiotic tolerance in GBS clinical isolates collected from cervicovaginal-rectal swabs, by investigating cell wall inhibitors used to eliminate GBS colonization in pregnant women before delivery as stated by the CDC guidelines. A ratio of the minimum bactericidal concentration (MBC) over minimum inhibitory concentration (MIC) after 24 h of antibiotic incubation or by determining quantitative kill curves has been used to define antibiotic tolerance previously.
The MBC:MIC ratio was calculated for laboratory strains using three β-lactam antibiotics (Penicillin G, Ampicillin, and Cefazolin) and a glycopeptide antibiotic (Vancomycin) (Table 1). Early-log phase cultures of GBS were treated with the individual antibiotics at a concentration of 0.25 to 512×MIC90. The optical density (OD600) of antibiotic treated cultures was used to determine the MIC90 after 24 h and a cell count was used to determine their MBC90. Susceptible, tolerant and intermediate strains were defined by their MBC:MIC ratio of ≦2:1, ≧32:1 and 4:1-16:1 respectively. […] The ratios characterized GBS strains A909 and 2603V/R as Susceptible, O90R as Tolerant, and NEM316 as Intermediate to Penicillin, Ampicillin, and Cefazolin. All four strains were susceptible to Vancomycin.
(I) Bacterial Strains and Culture Conditions. GBS strains A909 (serotype IA), 515 (serotype IA), NEM316 (serotype III), COHI (serotype III), 2603V/R (serotype V) and O90R (non-typable) were used in this study. E. coli Top10 cells were used for the recombination experiments. GBS was cultured in Todd Hewitt broth (THB) or Tryptic Soy 5% sheep blood (TS) media and E. coli in Luria-broth (LB) medium or agar. Antibiotics were used at the following concentrations: for GBS—penicillin G (MIC90 0.06 μg ml^−1), ampicillin (MIC90 0.12 μg ml^−1), vancomycin (MIC90 2 μg ml^−1), cefazolin (MIC90 1 μg ml^−1) and chloramphenicol (5 μg ml^−1); for E. coli—ampicillin (50 μg ml^−1) and chloramphenicol (5 μg ml^−1). Both GBS and E. coli cultures were grown at 37° C. (II) Tolerance Using the MBC:MIC Ratio Method. Three GBS laboratory strains (i.e., A909, NEM316, and O90R) were cultured overnight for 18 h at 37° C. in THB. Subcultures in THB were subsequently grown to exponential phase (OD600˜0.3; i.e. 5×10^5 cfu/ml) at 37° C. Cell cultures were then exposed to different concentrations of antibiotics (Penicillin G, Ampicillin, Cefozolin or Vancomycin). […] Cell cultures were dispersed every 18 h before OD600 was measured to determine the lowest concentration of antibiotic with 90% growth inhibition (MIC90). Antibiotic treated cells (8 μl) from each well were re-suspended into PBS (100 μl) and plated (54 μl) on TS agar plates and allowed to grow for an additional 24 h at 37° C. Cell count was performed to determine the lowest concentration of antibiotic with 90% killing of original inoculums (MBC90). (III) Penicillin Killing and Regrowth Tolerance Assay by Microbroth Dilution. Three GBS laboratory strains (i.e., A909, NEM316, and O90R) were cultured overnight for 18 h at 37° C. in THB. Subcultures in THB were subsequently grown to exponential phase (OD600˜0.3) at 37° C. Cell cultures were then exposed to different concentrations of Penicillin G (Sigma, St. Louis, Mo.). […] Cell cultures were dispersed. A 1:20 dilution of cells was re-plated into new wells containing fresh THB with 500 U Penase (to degrade residual penicillin). Cell cultures were allowed to re-grow for an additional 24 h at 37° C. before the OD600 was measured. (IV) Measuring Cell Viability by Determining ATP Concentration. GBS strains were cultured for 18 h at 37° C. in THB. These cells were inoculated into fresh THB and subsequently allowed to grow to exponential phase (OD600 0.25-0.3) at 37° C. One ml of each culture was centrifuged at 5,000×g for 4 min. The cell pellet was re-suspended in ATP-free water. […]

SMILES | Ratio (MBC90:MIC90) (GBS strain 2603V/R) | Ratio (MBC90:MIC90) (GBS strain A909) | Ratio (MBC90:MIC90) (GBS strain NEM316) | Ratio (MBC90:MIC90) (GBS strain O90R) | MBC (GBS strain 2603V/R) | MBC (GBS strain A909) | MBC (GBS strain NEM316) | MBC (GBS strain O90R) | MIC (GBS strain 2603V/R) | MIC (GBS strain A909) | MIC (GBS strain NEM316) | MIC (GBS strain O90R) | MIC90
Cc1nnc(SCC2=C(C(=O)O)N3C(=O)[C@@H](NC(=O)Cn4cnnn4)[C@H]3SC2)s1 [Cefazolin] | 2 | 1 | 16 | 32 | 0.39 µg/mL | 0.19 µg/mL | 3.12 µg/mL | 12.5 µg/mL | 0.19 µg/mL | 0.19 µg/mL | 0.19 µg/mL | 0.39 µg/mL | 1 µg/mL
CN[C@H](CC(C)C)C(=O)N[C@H]1C(=O)N[C@@H](CC(N)=O)C(=O)N[C@H]2C(=O)N[C@H]3C(=O)N[C@H](C(=O)N[C@H](C(=O)O)c4cc(O)cc(O)c4-c4cc3ccc4O)[C@H](O)c3ccc(c(Cl)c3)Oc3cc2cc(c3O[C@@H]2O[C@H](CO)[C@@H](O)[C@H](O)[C@H]2O[C@H]2C[C@](C)(N)[C@H](O)[C@H](C)O2)Oc2ccc(cc2Cl)[C@H]1O [Vancomycin] | 1 | 1 | 1 | 1 | 4 µg/mL | 4 µg/mL | 4 µg/mL | 4 µg/mL | 4 µg/mL | 4 µg/mL | 4 µg/mL | 4 µg/mL | 2 µg/mL
CC1(C)S[C@@H]2[C@H](NC(=O)[C@H](N)c3ccccc3)C(=O)N2[C@H]1C(=O)O [Ampicillin] | 1 | 1 | 4 | – | 0.48 µg/mL | 0.48 µg/mL | 1.92 µg/mL | 15.4 µg/mL | 0.48 µg/mL | 0.48 µg/mL | 0.48 µg/mL | 0.96 µg/mL | 0.12 µg/mL
